Experiment [1] deals with Cholesterol Synthesis (liver). The experiment in a line: In vivo cholesterol synthesis in rat liver after oral administration (Table V). Conditions: for Cholesterol Synthesis, 3H2O converted: control 1.35 ± 0.04; for Cholesterol Synthesis, [14C]alanine converted: control 33.0 ± 3.1. As to the method: (§1) Rats are prepared by fasting 48 hours and refeeding a 1% corn oil 70% glucose diet for several days (5-15). On the experimental day, rats are dosed 30 or 60 minutes before the 3 hour meal by oral intubation, or 60 minutes after the end of the 3 hour meal by intraperitoneal injection. (The dose concentrated is a mmoles/kg/5-10 ml H2 O or 1% gum arabic depending on the solubility of the compound.) Rats are sacrificed by decapitation after a 30 minute pulse consisting of: 1mCi^3 H2 O,5 μCi[U-^14 C]alanine, 12.3 mg. alanine, and 30.6 mg α-ketoglutaric acid in […], given at the end of the 3 hour meal by i.v. injection into the tail vein. Blood was collected, allowed to clot and the serum analyzed for triglyceride and cholesterol levels. The livers are quickly excised, saponified, and acidified (only for determining the rate of lipogenesis) and extracted with hexane. At this stage the lipids are either counted (to determine the rate of lipogenesis) or precipitated with digitonin, washed, and counted (to determine the rate of cholesterogenesis). The conversion of ^3 H2 O and [^14 C]alanine into fatty acids or sterols is determined in a PDS/3, Mark II liquid scintillation counting system. Data are expressed as moles ^3 H2 O nmoles converted into fatty acids and cholesterol per g liver per 30 minutes.
(§2) ^a Charles River CD rats (6 rats per group at 160-180 g) were fasted
(§3) 48 hours, then mealfed a high carbohydrate diet for 18 days. On the
(§4) experimental day, rats were given an oral dose (1% gum arabic or
(§5) 3amino-4-carbomethoxy-2-n-propylthiophene hydrochloride in 1% gum arabic
(§6) at the above concentrations) 30 minutes before the beginning of the meal.
(§7) At the end of the 3 hour meal, the rats were given an i.v. pulse,
sacrificed 30 minutes later, and rates of synthesis were determined.
(§8) ^b Data are expressed as μmoles ^3 H2 O and nmoles
[^14 C]alanine converted into cholesterol per g liver per 30 minutes.

A short description of experiment [2]: Serum lipids after intraperitoneal administration (Table III). In kind it is in vivo, rat. Conditions: i.p. 0.1 mmoles/kg. As to the method:
as §1, with “minutes. […]” for “minutes.”
(§9) sacrificed and rates of synthesis determined.

In experiment [3] the test system is Fatty Acid Synthesis (liver). The experiment can be described thus: In vivo fatty acid synthesis in rat liver after oral administration (Table IV). The following applies: oral 1.2 mmoles/kg. The protocol: as §1, §2, §3, §4, §5, §6, §7
sacrificed 30 minutes later and rates of synthesis were determined.
as §8
[^14 C]alanine converted into fatty acids per g liver per 30 minutes.

The subject of experiment [4] is Cholesterol Synthesis (liver). The experiment can be described thus: In vivo cholesterogenesis in rat liver after intraperitoneal administration (Table II). Conditions: i.p. 0.1 mmoles/kg. As to the method: as §1, with “The livers are quickly excised, saponified, and acidified (only for determining the rate of lipogenesis) and extracted with hexane.” left out, “minutes. […]” for “minutes.”
as §9
(§10) ^b Data are expressed as μmoles ^3 H2 O and moles[ ^1 […]

Experiment [5] concerns Fatty Acid Synthesis (liver). The experiment can be described thus: In vivo lipogenesis in rat liver after intraperitoneal administration (Table II). Conditions: i.p. 0.1 mmoles/kg; control 614 ± 66. As to the method: as §1, with “The livers are quickly excised, saponified, and acidified (only for determining the rate of lipogenesis) and extracted with hexane.” left out, “minutes. […]” for “minutes.”
as §9, §10

Experiment [6] relates to Hepatic Cholesterol Synthesis. The experiment can be described thus: Hepatic cholesterol synthesis after oral administration at increasing concentrations (Table VI). It is filed as in vivo, rat. The following applies: oral gavage, 0.4 to 1.2 mmoles/kg over 10 days. As to the method: as §1
(§11) ^a Charles River female rats were fasted 48 hr, then mealfed (8 to 11
(§12) a.m.) a high carbohydrate diet for 14 days. Rats weighing 180 to 210 g (1
(§13) in each group) were dosed by gastric gavage, with either 1% gum arabic or
(§14) Compound A in 1% gum arabic. The initial dose was 0.4 mmoles (89 mg) per
(§15) kg body weight and was increased by 0.2 mmoles (44 mg) per kg body weight
(§16) every other day. The experimental period consisted of 10 days, and the
(§17) doses given were 0.4, 0.6, 0.8, 1.0 and 1.2 mmoles per kg. All rats were
(§18) fed 1/2 hr after the oral dose. On the 10th day, following the 3 hr meal,
(§19) each rat received an intravenous injection (consisting of 5 μCi
(§20) [U^14 C]alanine, 1 mCi ^3 H2 O, 12.3 mg alanine and 30.6 mg
(§21) ketoglutaric acid) and was killed 30 min later. Livers were quickly
(§22) excised, saponified, and extracted for fatty acids or cholesterol. Data
(§23) are expressed as μmoles ^3 H2 O or nmoles [^14 C]alanine
(§24) converted into fatty acids or cholesterol per gram liver per 30 min.
(§25) Each value is the mean ± SE.

The nature of experiment [7]: Total body fat and protein in ad libitum high fat fed rats, 63 day study (Table IX). Conditions: dietary admixture 71 then (day 33) 130 mg/kg/day, 63 days. It is filed as in vivo, rat. As to the method: (§26) As previously mentioned, the compounds disclosed and claimed herein are also useful as antiobesity agents. […] Groups of 10 rats were fed ad libitum a 10% corn oil, 60% glucose diet in accordance with the methodology described in Sullivan et al., Am. J. Clin. Nutr. 30:767-776 (1977). The effect of 4-amino-5-ethyl-3-thiophene carboxylic acid methyl ester hydrochloride on body weight, total body fat and protein was determined. The results are tabulated in Example 35 (Table VIII and Table IX) of the specification.
(§27) The antiobesity activity of 4-amino-5-ethyl-3-thiophene carboxylic acid methyl ester hydrochloride (Compound A) was evaluated in a long-term chronic experiment in which body weight gain and food consumption were monitored at least biweekly. The study was conducted on Charles River rats receiving 10% corn oil: 60% glucose (high fat) diets. For the first 32 days of this study a dose of approximately 71 mg./kg. body weight/day was given. From day 33 until the end of the study the average daily dose was increased to 130 mg./kg. body weight/day. The study included a group of rats pair-fed to the Compound A treated rats, i.e., the pair-fed animals received the same amount of food as their Compound A paired rat consumed on the previous day. Pair feeding was terminated several days after food intake in the Compound A treated groups returned to control levels. Pair-feeding to the Compound A treated group was terminated on day 22. Upon termination of the study, carcass lipid and protein levels, serum lipids and hepatic rates of fatty acid synthesis in vivo were determined. A summary of the initial and final body weights, cumulative weight gained and food consumed and average daily food intake is presented in Table VIII.
(§28) ^a Female Charles River rats (10 rats per group) were fed ad libitum
(§29) the 10% corn oil:60% glucose diet. On day 1 of the experiment rats were
(§30) divided into three groups: (1) control, (2) Compound A as a dietary
admixture (71 mg/kg body weight/day), and (3) pairfed to the Compound A
treated group. Pairfeeding was terminated on day 22. On day 33 the
concentration of Compound A was increased to 130 mg/kg/day.

Experiment [8] in a line: Body weight and food intake in ad libitum high fat fed rats, 63 day study (Table VIII). It is filed as in vivo, rat. As to the method:
as §26, §27, §28, §29, §30
admixture (71 mg/kg body weight/day, and (3) pairfed to the Compound A
treated group. Pairfeeding was terminated on day 23. On day 33 the
concentraton of Compound A was increased to 130 mg/kg/day.

The test system of experiment [9] is Hepatic Fatty Acid Synthesis. The experiment can be described thus: Hepatic fatty acid synthesis after oral administration at increasing concentrations (Table VI). It is filed as in vivo, rat. The following applies: oral gavage, 0.4 to 1.2 mmoles/kg over 10 days. The protocol:
as §1, §11, §12, §13, §14, §15, §16, §17, §18, §19, §20, §21, §22, §23, §24, §25

A short description of experiment [10]: Serum triglycerides, cholesterol, insulin and glucose after oral administration at increasing concentrations (Table VII). The following applies: oral gavage, 0.4 to 1.2 mmoles/kg over 10 days. In kind it is in vivo, rat. As to the method:
as §1, §11, §12, §13, §14, §15, §16, §17
fed 1/2 hr after the oral dose. On the 10th day, following the 3 hr meal
as §19, §20
ketoglutaric acid) and was killed 30 min later. Blood was collected,
allowed to clot and serum analyzed.
Each value is the mean ±SE

The mark [11] stands for this setting: oral 0.4 nmoles/kg (so in the source).

Consider `CCCc1scc(C(=O)OC)c1N.Cl` [3-amino-4-carbomethoxy-2-n-propylthiophene hydrochloride], for which the “Cholesterol Synthesis, 3H2O, % of Control” value was 71 % of Control in experiment [1] (setting [11]) and 65 % of Control in [1] (oral 1.2 mmoles/kg). Also, the “Cholesterol Synthesis, [14C]alanine, % of Control” value is recorded as 53 % of Control in experiment [1] (setting [11]) and 46 % of Control in experiment [1] (oral 1.2 mmoles/kg). Moreover, the “Cholesterol Synthesis, 3H2O converted” value in [1] (setting [11]) is recorded as 0.96 ± 0.05 μmoles/g/30 min; in [1] (oral 1.2 mmoles/kg) it was 0.88 ± 0.16 μmoles/g/30 min; in experiment [4] (control 1.36 ± 0.07) it was 0.85 ± 0.06 μmoles/g/30 min. Besides, the “Cholesterol Synthesis, [14C]alanine converted” value is reported as 17.4 ± 0.9 nmoles/g/30 min in [1] (setting [11]), 15.2 ± 3.2 nmoles/g/30 min in experiment [1] (oral 1.2 mmoles/kg) and 17.6 ± 1.9 nmoles/g/30 min in experiment [4] (control 35.7 ± 3.2). Also, in experiment [2] (control 67 ± 4), the “Triglycerides (serum)” value is reported as 51 ± 3 mg %. In experiment [2] (control 116 ± 7), the “Cholesterol (serum)” value is given as 105 ± 11 mg %. Further, in [3], the “Fatty Acid Synthesis, 3H2O, % of Control” value is listed as 36 % of Control. Further, the “Fatty Acid Synthesis, [14C]alanine, % of Control” value in experiment [3] is listed as 34 % of Control. Further, the “Fatty Acid Synthesis, 3H2O converted” value in experiment [3] (control 19.6 ± 2.4) came to 7.1 ± 1.7 μmoles/g/30 min. The “Fatty Acid Synthesis, [14C]alanine converted” value in [3] (control 473 ± 76) came to 162 ± 60 nmoles/g/30 min; in [5], 251 ± 36 nmoles/g/30 min.

As for `CCc1scc(C(=O)OC)c1N.Cl` [Compound A, 4-amino-5-ethyl-3-thiophenecarboxylic acid methyl ester hydrochloride], in experiment [6], the “Cholesterol Synthesis, 3H2O (value in parentheses, relative to control)” value is on record as 120% and the “Cholesterol Synthesis, [14C]alanine (value in parentheses, relative to control)” value was 114%. Moreover, the “Cholesterol Synthesis, 3H2O” value in [6] (mean ± SE, control 0.50 ± 0.06) came to 0.60 ± 0.06 μmoles/g/30. Further, the Cholesterol Synthesis, [14C]alanine in experiment [6] (mean ± SE, control 13.9 ± 1.5) worked out at 15.8 ± 1.6 nmol/g/30 min. Moreover, in experiment [7] (control 19.1 ± 1.6), the “Protein, % of body weight” value is 20.7 ± 1.4 % of body weight. Also, in [7] (control 23.5 ± 2.2), the “Lipid, % of body weight” value is given as 16.5 ± 1.7 % of body weight. Further, the “Protein, total” value in [7] (control 54.1 ± 4.8) worked out at 52.7 ± 0.6 g. In experiment [7] (control 66.8 ± 7.1), the “Lipid, total” value amounted to 42.1 ± 4.5 g. For the same compound, in experiment [8] (baseline of Compound A group, control 215 ± 3), the “IBW (initial body weight)” value turned out to be 214 ± 3 g. The “FI (food intake)” value in experiment [8] (dietary admixture 71 then (day 33) 130 mg/kg/day, 63 days, control 17.7 ± 0.7, pair-fed 16.0 ± 0.4) turned out to be 16.3 ± 0.4 g/day. For the same compound, the “CBWG (cumulative body weight gain)” value in [8] (dietary admixture 71 then (day 33) 130 mg/kg/day, 63 days, control 68 ± 6, pair-fed 66 ± 6) is reported as 41 ± 4 g. Further, in experiment [8] (dietary admixture 71 then (day 33) 130 mg/kg/day, 63 days, control 282 ± 8, pair-fed 281 ± 6), the “FBW (final body weight)” value was determined as 256 ± 4 g. In addition, the “CFC (cumulative food consumption)” value in experiment [8] (dietary admixture 71 then (day 33) 130 mg/kg/day, 63 days, control 1115.1 ± 44.1, pair-fed 1008.0 ± 25.2) is given as 1026.9 ± 25.2 g. Also, in experiment [9], the “Fatty Acid Synthesis, 3H2O (value in parentheses, relative to control)” value stood at 49% and the “Fatty Acid Synthesis, [14C]alanine (value in parentheses, relative to control)” value is recorded as 42%. Besides, in experiment [9] (mean ± SE, control 36.7 ± 2.7), the “Fatty Acid Synthesis, 3H2O” value stood at 18.0 ± 2.3 μmoles/g/30 min. For the same compound, in experiment [9] (mean ± SE, control 685 ± 59), the “Fatty Acid Synthesis, [14C]alanine” value is 290 ± 49 nmoles/g/30 min. For the same compound, in experiment [10], the “Cholesterol (value in parentheses, relative to control)” value is given as 81%; the “Glucose (value in parentheses, relative to control)” value is recorded as 97%; the “Insulin (value in parentheses, relative to control)” value is on record as 49%; the “Triglycerides (value in parentheses, relative to control)” value is 62%. Further, in experiment [10] (mean ± SE, control 3.85 ± 0.74), the “Insulin (serum)” value was 1.91 ± 0.24 ng/mL. Further, the “Triglycerides (serum)” value in experiment [10] (mean ± SE, control 51 ± 3) amounted to 31 ± 3 mg %. In addition, in experiment [10] (mean ± SE, control 97 ± 5), the “Cholesterol (serum)” value stood at 79 ± 6 mg %. The “Glucose (serum)” value in experiment [10] (mean ± SE, control 165 ± 7) is recorded as 160 ± 5 mg %.

For the origin of these results see patent US4428963A, “Novel thiophene derivatives” (Hoffmann-La Roche Inc., priority 1983, dated 1984).
